Values of other authors as cited in patent US12564203B2, “Coating composition comprising pH-sensitive polymer” (CJ CHEILJEDANG CORPORATION, priority 2020, dated 2026).

Conditions: degree of hydrophilicity (hydrophobicity) of an amino acid

SMILES	hydropathy index
CC(C)[C@H](N)C(=O)O [valine]	4.2
NCCCC[C@H](N)C(=O)O [lysine]	−3.9
N=C(N)NCCC[C@H](N)C(=O)O [arginine]	−4.5
CC[C@H](C)[C@H](N)C(=O)O [isoleucine]	4.5
